Laboratory results published in patent US20110039763A1, “TARGETED ANTIMICROBIAL MOIETIES” (C3 JIAN, INC., priority 2009, published 2011).
“Also recorded” adds a separate entry of the source. Ends that are not written are not given here.

Legend:
A. baumannii = test: MIC test / antimicrobial activity, A. baumannii; type: cell-based, Acinetobacter baumannii
Method: (§1) The active AMPs, STAMPs and the like can be identified and/or validated using an in vitro screening assay.
(§2) It will be appreciated that other assays as are well known in the art or that will become apparent to those having skill in the art upon review of this disclosure may also be used to identify active AMPs. Such assays include, for example, the assay described in Lehrer et al. (1988) J. Immunol.
(§3) Peptides were evaluated for basic antimicrobial activity by broth microdilution, as described previously (Eckert et al. (2006) Antimicrob Agents Chemother., 50: 3651-3657; Eckert et al. (2006) Antimicrob Agents Chemother., 50: 1480-1488). Briefly, ˜1×10^5 cfu/mL bacteria were diluted in TH (S. mutans), or Mueller-Hinton (MH) broth (all other organisms) and distributed to 96-well plates. Serially-diluted (2-fold) peptides were then added and the plates incubated at 37° C. for 18-24 h. […] All experiments were conducted 10 times.

C. difficile = test: MIC test / antimicrobial activity, C. difficile; type: cell-based, Clostridium difficile
Method: as §1, §2, §3

microorganisms [1] = test: Peptide activities: targeting/binding, antimicrobial, growth or phenotype altering (Tables 7, 8); type: cell-based; details: peptides having multiple activities
microorganisms [2] = test: Morphology, biofilm and growth disrupting peptides (Table 5); type: cell-based; parameters: key: A: Peptide aggregates; B: Less hyphal formation; Clumps; Diffuse clumps and small polyps; F: Diffuse growth; H: Thin; I: Growth inhibition; Microcolony formation; Rippled; Small polyps; Thick; W: Halo formation on top, microlonies on bottom
Excerpt: In certain embodiments peptides that induce alterations in phenotype or other biological activities can also be used as antimicrobial effector moieties.

T. rubrum = test: MIC test / antimicrobial activity, T. rubrum; type: cell-based, Trichophyton rubrum
Method: as §1, §2, §3

S. epidermidis = test: MIC test (broth microdilution) / antimicrobial activity, S. epidermidis; type: cell-based, Staphylococcus epidermidis; details: S. epidermidis
Method: as §1, §2, §3

C. albicans = test: MIC test / antimicrobial activity, C. albicans; type: cell-based, Candida albicans
Method: as §1, §2, §3

microorganisms [3] = test: Targeting peptide binding to target microorganisms (Tables 3, 10, 12); details: microorganism(s) the targeting peptide binds, preferably 1x PBS
B. subtilis = test: MIC test / antimicrobial activity, B. subtilis; type: cell-based, Bacillus subtilis; details: B. subtilis
Method: as §1, §2, §3

MRSA = test: MIC test / antimicrobial activity, MRSA; type: cell-based, Methicillin-resistant Staphylococcus aureus
Method: as §1, §2, §3

[4] = binding in aqueous buffers varied with peptide solubility

Substance	Organism MIC (μM) (A. baumannii)	Organism MIC (μM) (C. difficile)	Activities (microorganisms [1])	Organism, effect (microorganisms [2]; S. pneumoniae)	Organism MIC (μM) (T. rubrum)	Organism MIC (μM) (C. albicans)	Target(s) (microorganisms [3]; [4])	Organism, effect: C. albicans (microorganisms [2])	Organism, effect: M. luteus (microorganisms [2])	Organism, effect: S. epidermidis (microorganisms [2]; S. epidermidis)	Organism MIC (μM) (B. subtilis)	Organism, effect: B. subtilis (microorganisms [2])	also measured
KNKKQTDILEKVKEILDKKKKTKSVGQKLY [PF-538]	A. baumannii, 25 μM	C. difficile, 25 μM	G M	S. pneumoniae (H)									
SKFKVLRKIIIKEYKGELMLSIQKQR [PF-530]	A. baumannii, 25 μM		G M	S. pneumoniae (R)									Organism, effect (microorganisms [2]; E. coli): E. coli (R); Organism, effect (microorganisms [2]; E. faecalis): E. faecalis (C); Organism, effect (microorganisms [2]; MRSA): MRSA (C); Organism, effect (microorganisms [2]; S. epidermidis): S. epidermidis (H)
LSLATFAKIFMTRSNWSLKRFNRL [PF-278]			G B M		T. rubrum, 50 μM	C. albicans, 50 μM	M. luteus; also recorded: A. baumannii	C. albicans (B)	M. luteus (R)	S. epidermidis (I)			Organism MIC (μM) (S. epidermidis): S. epidermidis, 50 μM
MKRRRCNWCGKLFYLEEKSKEAYCCKECRKKAKKVKK [PF-307]			G B M		T. rubrum, 50 μM	C. albicans, 50 μM	S. epidermidis; also recorded: B. subtilis; also recorded: B. fragilis; also recorded: C. difficile	C. albicans (B)		S. epidermidis (T)	B. subtilis, 50 μM	B. subtilis (H)	
FELVDWLETNLGKILKSKSA-NH2 [PF-522]		C. difficile, 25 μM	G B M	S. pneumoniae (H)			S. epidermidis; also recorded: E. coli; also recorded: P. aeruginosa; also recorded: S. pneumoniae; also recorded: E. faecalis						
MGIIAGIIKFIKGLIEKFTGK [PF-006]	A. baumannii, 50 μM		G B M						M. luteus (A)	S. epidermidis (D)	B. subtilis, 25 μM	B. subtilis (I)	Organism MIC (μM) (MRSA): MRSA, 50 μM; Target(s) (microorganisms [3]; binding in aqueous buffers that varied with peptide solubility): S. epidermidis and M. luteus and E. coli and P. aeruginosa and MRSA and E. faecalis and C. jeikeium and C. jejuni; Organism, effect: C. jejuni (microorganisms [2]; C. jejuni): C. jejuni (D); Organism, effect: MRSA (microorganisms [2]; MRSA): MRSA (I); Organism, effect: S. pneumoniae (microorganisms [2]; S. pneumoniae): S. pneumoniae (R)
